Reference: patent US20260345609A1, “METHODS FOR PROMOTING PERSISTENCE OF CELL THERAPY” (Legend Biotech Ireland Limited, priority 2022, published 2026)

Legend:
[1] = test system: untransduced T cells (UnT); experiment: In vitro mixed lymphoid (MLR) model with CAR-γδT cells, UnT and U937 cells: host UnT cells; format: cell-based, human; settings: 0.05 μM and 0.5 μM MTX; mixed culture with CAR-γδT and U937 cells
Method: To evaluate the ability of γδ T cells to tolerate allogeneic T cell rejection, an in vitro mixed lymphoid (MLR) model was established.
Using the T cells from a random healthy donor (B donor), CAR-γδT cells were prepared following the method in Example 1, as the graft cells. Un-transduced T cells (UnT) from another random healthy donor (T cell donor A) were also prepared, as the host cells.
The density of CLL1 positive human lymphoma cells (U937) was adjusted to 1×10^6 cells/mL. U937 cells were treated with 20 μg/mL mitomycin at 37° C. for 3 h, washed three times with 10 mL DPBS, and suspended in the culture medium. 20×10^6 untransduced T cells (UnT, T cell donor A), 1×10^6 CAR-γδT cells (T cell donor B), and 5×10^6 treated human lymphoma cells U937 were mixed and cultured in the medium. The cell mixture was divided into 3 groups, and 0 μM, 0.05 μM MTX, or 0.5 μM MTX was added, respectively. […] CAR-γδT cells were stimulated repeatedly with U937 cells at day0, day4, day7 at an E/T ratio of 1:1 According to the formula: fold change of cell number (UnT)=[cell number counted by AOPI×(CD3-/TCR VY9+%)]/20, fold change of cell number (CAR-γδT)=[cell number counted by AOPI×(CD3+/TCR Vγ9+%)]/1, the cell proliferation curves of UnT and CAR-γδT cells were plotted.

[2] = test system: human gastric cancer cells NUGC4; experiment: In vivo efficacy in subcutaneous NUGC4 gastric cancer xenograft model, tumor volume; parameters: species or system NCG immunodeficient mice; human tumor cells; settings: G5, 22.635 mg/kg MTX alone i.p., day5 to day35, p>0.05
From the text: Refer to Example 1, the fusion gene sequence of SIV Nef M116-IRES-CD8α SP Claudin18.2 VHH-CD8α Hinge-CD8α TM-4-1BB-ITAM010 (SEQ ID NO: 5) was cloned into the expression plasmid pLVX-hEF1α to form the M1645 expression plasmid. The anti-Claudin18.2 VHH, as well as the antigen binding domain of CAR, have been disclosed in PCT/CN2020/139143. TGB23-6-IRES-DHFR L22F/F31S (SEQ ID NO: 7) was cloned into the expression plasmid pLVX-hEF1α to form the M1647 expression plasmid. The fusion protein of TGB23-6 is a signal converter, and has been described in PCT/CN2022/087016. To obtain LUCAR-GC cells, M1645 and M1647 were transduced into T cells. The production of Virus vector and the transduction of primary T were completed with reference to Example 1.
Severely immunodeficient NCG mice were used for in vivo efficacy evaluation. On day −14 before treatment, NCG immunodeficient mice were inoculated subcutaneously with tumor cells (3×10^6 human gastric cancer cells NUGC4/mouse). […] During the experiment, animal status, survival, tumor volume and body weight were measured twice a week. […] The proportion of transplanted cells (hCD45+%/live) in the peripheral blood of mice was counted.

[3] = test system: untransduced T cells (UnT); experiment: In vitro mixed lymphoid (MLR) model with LUCAR-20SD cells, UnT and Raji cells: host UnT cells; format: cell-based, human; settings: 0.05 μM, 1 μM, 2 μM MTX
Method: To evaluate the ability of LUCAR-20SD cells to tolerate allogeneic T cell rejection, an in vitro mixed lymphoid (MLR) model was established.
Using the T cells from a random healthy donor (B donor), LUCAR-20SD cells were prepared following the method in Example 1, as the graft cells. Un-transduced T cells (UnT) from another random healthy donor (Adonor) were also prepared, as the host cells.
The cell density of CD20 positive cells (lymphoma cell lines Raji, ATCC, CCL-86) was adjusted to 1×10^6 cells/mL. Raji cells were treated with 20 μg/mL mitomycin at 37° C. for 3 h, washed three times with 10 mL DPBS, and were resuspended in the culture medium. 20×10^6 untransduced T cells (UnT, T cell donor A), 1×10^6 LUCAR-20SD cells (T cell donor B), and 5×10^6 treated lymphoma cells Raji were mixed and cultured in the medium. The cell mixture was divided into 4 groups, and 0 μM MTX, 0.05 μM MTX, 1 μM MTX, or 2 μM MTX was added, respectively. […] According to the formula: fold change of cell number (UnT)=[cell number counted by AOPI×(CAR-CD5+%)]/20, fold change of cell number (LUCAR-20SD cells)=[cell number counted by AOPI×(CAR+CD5+%)]/1, the cell proliferation curves of UnT and LUCAR-20SD cells were plotted.

**Q.** How did the “proliferation of UnT cells” value [1] turn out when `CN(Cc1cnc2nc(N)nc(N)c2n1)c1ccc(C(=O)N[C@@H](CCC(=O)O)C(=O)O)cc1` [MTX, methotrexate] was run?
**A.** The value was “significantly inhibited”.

**Q.** What about the “tumor volume compared with control G1 and G2” value [2] of the same compound?
**A.** The value was “not significantly different”.

**Q.** What about the “fold change of cell number (UnT)” value ([3]; day 1 to day 13) of the same compound?
**A.** The value was “less than 1”.

**Q.** And the “proliferation of UnT cells” value ([3]; mixed culture with LUCAR-20SD and Raji cells)?
**A.** The value was “significantly inhibited”.
